Assay results published in ChEMBL document CHEMBL3044788, “α-(Substituted-phenoxyacetoxy)-α-heterocyclylmethylphosphonates: synthesis, herbicidal activity, inhibition on pyruvate dehydrogenase complex (PDHc), and application as postemergent herbicide against broadleaf weeds” (J Agric Food Chem, 2013).

How the values were obtained:
[1] = tested on: Brassica rapa subsp. oleifera; assay: Herbicidal activity against two to three-leaf stage Brassica rapa subsp. oleifera assessed as inhibition of plant growth at 150 g/ha in greenhouse by postemergence herbicidal activity assay; format: functional; details: post-emergence, read-out: GI
[2] = tested on: Amaranthus retroflexus; assay: Herbicidal activity against 2 to 3 leaf stage Amaranthus retroflexus assessed as inhibition of plant growth at 150 g/ha in greenhouse by postemergence herbicidal activity assay; format: functional; details: post-emergence, read-out: GI
[3] = tested on: Eclipta prostrata; assay: Herbicidal activity against two to three-leaf stage Eclipta prostrata assessed as inhibition of plant growth at 150 g/ha in greenhouse by post-emergence herbicidal activity assay; format: functional; details: read-out: GI
[4] = tested on: Abutilon theophrasti; assay: Herbicidal activity against two to three-leaf stage Abutilon theophrasti (velvetleaf) assessed as inhibition of plant growth at 150 g/ha in greenhouse by post-emergence herbicidal activity assay; format: functional; details: read-out: GI
[5] = tested on: Abutilon theophrasti; assay: Herbicidal activity against two to three-leaf stage Abutilon theophrasti (velvetleaf) assessed as inhibition of plant growth at 450 g/ha in greenhouse by post-emergence herbicidal activity assay; format: functional; details: read-out: GI
[6] = tested on: Amaranthus retroflexus; assay: Herbicidal activity against 2 to 3 leaf stage Amaranthus retroflexus assessed as inhibition of plant growth at 450 g/ha in greenhouse by postemergence herbicidal activity assay; format: functional; details: post-emergence, read-out: GI
[7] = tested on: Brassica rapa subsp. oleifera; assay: Herbicidal activity against two to three-leaf stage Brassica rapa subsp. oleifera assessed as inhibition of plant growth at 450 g/ha in greenhouse by postemergence herbicidal activity assay; format: functional; details: post-emergence, read-out: GI
[8] = tested on: Eclipta prostrata; assay: Herbicidal activity against two to three-leaf stage Eclipta prostrata assessed as inhibition of plant growth at 450 g/ha in greenhouse by post-emergence herbicidal activity assay; format: functional; details: read-out: GI
[9] = tested on: Brassica rapa subsp. oleifera; assay: Herbicidal activity against Brassica rapa subsp. oleifera assessed as inhibition of rape root growth; format: functional, organism-based
[10] = tested on: Brassica rapa subsp. oleifera; assay: Herbicidal activity against Brassica rapa subsp. oleifera assessed as inhibition of rape root growth at 450 g/ha by postemergence herbicidal activity assay; format: functional; details: post-emergence, read-out: GI
[11] = tested on: Brassica rapa subsp. oleifera; assay: Herbicidal activity against Brassica rapa subsp. oleifera assessed as inhibition of rape root growth at 450 g/ha by pre-emergence herbicidal activity assay; format: functional; details: read-out: GI

## COP(=O)(OC)C(OC(=O)COc1ccc(C#N)cc1)c1ccco1 (stereo not given)
[1]
  inhibition of growth at 150 g/ha: 40%
[2]
  inhibition of growth at 150 g/ha: 50%
[3]
  inhibition of growth at 150 g/ha: 30%
[4]
  inhibition of growth at 150 g/ha: 40%

## COP(=O)(OC)C(OC(=O)COc1ccccc1F)c1cccs1 (stereo not given)
[1]
  inhibition of growth at 150 g/ha: 0%
[2]
  inhibition of growth at 150 g/ha: 15%
[3]
  inhibition of growth at 150 g/ha: 20%
[4]
  inhibition of growth at 150 g/ha: 0%

## COP(=O)(OC)C(OC(=O)COc1ccccc1Cl)c1ccco1 (stereo not given)
[1]
  inhibition of growth at 150 g/ha: 40%
[2]
  inhibition of growth at 150 g/ha: 40%
[3]
  inhibition of growth at 150 g/ha: 30%
[4]
  inhibition of growth at 150 g/ha: 0%

## COP(=O)(OC)C(OC(=O)COc1cccc(Cl)c1Cl)c1cccs1 (stereo not given)
[1]
  inhibition of growth at 150 g/ha: 0%
[5]
  inhibition of growth at 450 g/ha: 40%
[6]
  inhibition of growth at 450 g/ha: 60%
[7]
  inhibition of growth at 450 g/ha: 40%
[2]
  inhibition of growth at 150 g/ha: 40%
[3]
  inhibition of growth at 150 g/ha: 40%
[4]
  inhibition of growth at 150 g/ha: 0%
[8]
  inhibition of growth at 450 g/ha: 85%

## COP(=O)(OC)C(OC(=O)COc1cccc(C(F)(F)F)c1)c1ccco1 (stereo not given)
[1]
  inhibition of growth at 150 g/ha: 0%
[2]
  inhibition of growth at 150 g/ha: 0%
[3]
  inhibition of growth at 150 g/ha: 0%
[4]
  inhibition of growth at 150 g/ha: 0%

## COP(=O)(OC)C(OC(=O)COc1ccc(Cl)cc1F)c1ccco1 (stereo not given)
[1]
  inhibition of growth at 150 g/ha: 75%
[2]
  inhibition of growth at 150 g/ha: 60%
[3]
  inhibition of growth at 150 g/ha: 70%
[4]
  inhibition of growth at 150 g/ha: 70%

## COP(=O)(OC)C(O)c1ccco1 (stereo not given)
[9]
  IC50: > 4.67 mM
[10]
  inhibition of growth at 450 g/ha: 20%
[11]
  inhibition of growth at 450 g/ha: 25%

## COP(=O)(OC)C(OC(=O)COc1cccc(Cl)c1Cl)c1ccco1 (stereo not given)
[1]
  inhibition of growth at 150 g/ha: 30%
[2]
  inhibition of growth at 150 g/ha: 25%
[3]
  inhibition of growth at 150 g/ha: 35%
[4]
  inhibition of growth at 150 g/ha: 20%

## COP(=O)(OC)C(OC(=O)COc1cccc(C)c1C)c1cccs1 (stereo not given)
[1]
  inhibition of growth at 150 g/ha: 0%
[5]
  inhibition of growth at 450 g/ha: 0%
[6]
  inhibition of growth at 450 g/ha: 40%
[7]
  inhibition of growth at 450 g/ha: 0%
[2]
  inhibition of growth at 150 g/ha: 40%
[3]
  inhibition of growth at 150 g/ha: 0%
[4]
  inhibition of growth at 150 g/ha: 0%
[8]
  inhibition of growth at 450 g/ha: 70%

## COP(=O)(OC)C(OC(=O)COc1ccc(Cl)cc1)c1cccs1 (stereo not given)
[1]
  inhibition of growth at 150 g/ha: 70%
[5]
  inhibition of growth at 450 g/ha: 85%
[6]
  inhibition of growth at 450 g/ha: 80%
[7]
  inhibition of growth at 450 g/ha: 90%
[2]
  inhibition of growth at 150 g/ha: 70%
[3]
  inhibition of growth at 150 g/ha: 70%
[4]
  inhibition of growth at 150 g/ha: 70%
[8]
  inhibition of growth at 450 g/ha: 30%

## COP(=O)(OC)C(OC(=O)COc1ccc(C#N)cc1)c1cccs1 (stereo not given)
[1]
  inhibition of growth at 150 g/ha: 30%
[5]
  inhibition of growth at 450 g/ha: 40%
[6]
  inhibition of growth at 450 g/ha: 40%
[7]
  inhibition of growth at 450 g/ha: 40%
[2]
  inhibition of growth at 150 g/ha: 40%
[3]
  inhibition of growth at 150 g/ha: 0%
[4]
  inhibition of growth at 150 g/ha: 30%
[8]
  inhibition of growth at 450 g/ha: 60%

## COP(=O)(OC)C(OC(=O)COc1ccc(F)cc1Cl)c1cccs1 (stereo not given)
[1]
  inhibition of growth at 150 g/ha: 75%
[5]
  inhibition of growth at 450 g/ha: 90%
[6]
  inhibition of growth at 450 g/ha: 100%
[7]
  inhibition of growth at 450 g/ha: 95%
[2]
  inhibition of growth at 150 g/ha: 90%
[3]
  inhibition of growth at 150 g/ha: 80%
[4]
  inhibition of growth at 150 g/ha: 70%
[8]
  inhibition of growth at 450 g/ha: 85%

## COP(=O)(OC)C(OC(=O)COc1ccc(Cl)c(C)c1)c1ccco1 (stereo not given)
[1]
  inhibition of growth at 150 g/ha: 80%
[2]
  inhibition of growth at 150 g/ha: 80%
[3]
  inhibition of growth at 150 g/ha: 75%
[4]
  inhibition of growth at 150 g/ha: 80%

## COP(=O)(OC)C(OC(=O)COc1ccccc1F)c1ccco1 (stereo not given)
[1]
  inhibition of growth at 150 g/ha: 75%
[2]
  inhibition of growth at 150 g/ha: 60%
[3]
  inhibition of growth at 150 g/ha: 60%
[4]
  inhibition of growth at 150 g/ha: 40%

## COP(=O)(OC)C(OC(=O)COc1ccccc1)c1ccco1 (stereo not given)
[1]
  inhibition of growth at 150 g/ha: 28%
[2]
  inhibition of growth at 150 g/ha: 6%
[3]
  inhibition of growth at 150 g/ha: 31%
[4]
  inhibition of growth at 150 g/ha: 22%

## COP(=O)(OC)C(OC(=O)COc1ccc(Cl)cc1Cl)c1cccs1 (stereo not given)
[1]
  inhibition of growth at 150 g/ha: 90%
[5]
  inhibition of growth at 450 g/ha: 100%
[6]
  inhibition of growth at 450 g/ha: 100%
[7]
  inhibition of growth at 450 g/ha: 100%
[2]
  inhibition of growth at 150 g/ha: 90%
[3]
  inhibition of growth at 150 g/ha: 80%
[4]
  inhibition of growth at 150 g/ha: 90%
[8]
  inhibition of growth at 450 g/ha: 100%

## COP(=O)(OC)C(OC(=O)COc1ccc(Cl)cc1)c1ccco1 (stereo not given)
[1]
  inhibition of growth at 150 g/ha: 75%
[2]
  inhibition of growth at 150 g/ha: 70%
[3]
  inhibition of growth at 150 g/ha: 70%
[4]
  inhibition of growth at 150 g/ha: 75%

## COP(=O)(OC)C(OC(=O)COc1ccc(F)cc1F)c1ccco1 (stereo not given)
[1]
  inhibition of growth at 150 g/ha: 60%
[2]
  inhibition of growth at 150 g/ha: 50%
[3]
  inhibition of growth at 150 g/ha: 40%
[4]
  inhibition of growth at 150 g/ha: 40%
